How the values were obtained:
Assay type in all cases: in vivo
[1] = test system: Diabrotica balteata (Corn root worm); assay: Diabrotica balteata (Corn root worm) larval mortality, artificial diet in 24-well MTP; conditions: 120 h, application rate 200 ppm (concentration in well 18 ppm), L2 larvae, larval mortality after 5 days
[2] = test system: Myzus persicae (Green peach aphid); assay: Myzus persicae (Green peach aphid) mortality, sprayed sunflower leaf discs; conditions: foliar, 144 h, 200 ppm spray on sunflower leaf discs, mixed ages, mortality 6 DAT
[3] = test system: Myzus persicae (Green peach aphid); assay: Myzus persicae (Green peach aphid) mortality, test compounds mixed with Sucrose solution under Parafilm; conditions: 120 h, 12.5 ppm in Sucrose solution, infested pea seedlings on Parafilm, mortality 5 days after infestation
[4] = test system: Plutella xylostella (Diamond back moth); assay: Plutella xylostella (Diamond back moth) larval mortality, artificial diet in 24-well MTP; conditions: 144 h, application rate 200 ppm (concentration in well 18 ppm), L2 larvae, larval mortality after 6 days
[5] = test system: Spodoptera littoralis (Egyptian cotton leafworm); assay: Spodoptera littoralis (Egyptian cotton leafworm) mortality, sprayed cotton leaf discs; conditions: foliar, 72 h, 200 ppm spray on cotton leaf discs, L1 larvae, mortality 3 DAT
[6] = test system: Tetranychus urticae (Two-spotted spider mite); assay: Tetranychus urticae (Two-spotted spider mite) mortality, sprayed bean leaf discs; conditions: foliar, 192 h, 200 ppm spray on bean leaf discs, mixed ages, egg, larval and adult mortality after 8 days
[7] = test system: Thrips tabaci (Onion thrips); assay: Thrips tabaci (Onion thrips) mortality, sprayed sunflower leaf discs; conditions: foliar, 168 h, 200 ppm spray on sunflower leaf discs, mixed ages, mortality after 7 days

CCN(C(=O)c1ccncc1)c1cccc(C(=O)Nc2c(C)cc(C(F)(C(F)(F)F)C(F)(F)F)cc2OC(F)F)c1F [Compound 101]
≥ 80%: pest or weed control at 200 ppm [1] | pest or weed control at 200 ppm [2] | pest or weed control at 12.5 ppm [3] | pest or weed control at 200 ppm [4] | pest or weed control at 200 ppm [5] | pest or weed control at 200 ppm [6] | pest or weed control at 200 ppm [7]

CCN(C(=O)c1ccc([N+](=O)[O-])cc1)c1cccc(C(=O)Nc2c(Br)cc(C(F)(C(F)(F)F)C(F)(F)F)cc2OC(F)F)c1F [Compound 103]
≥ 80%: pest or weed control at 200 ppm [1] | pest or weed control at 200 ppm [2] | pest or weed control at 12.5 ppm [3] | pest or weed control at 200 ppm [4] | pest or weed control at 200 ppm [5] | pest or weed control at 200 ppm [6] | pest or weed control at 200 ppm [7]

O=C(Nc1cccc(C(=O)Nc2c(Br)cc(C(F)(C(F)(F)F)C(F)(F)F)cc2OC(F)F)c1F)c1ccccc1Cl [Compound 21]
≥ 80%: pest or weed control at 200 ppm [1] | pest or weed control at 200 ppm [2] | pest or weed control at 12.5 ppm [3] | pest or weed control at 200 ppm [4] | pest or weed control at 200 ppm [5] | pest or weed control at 200 ppm [6] | pest or weed control at 200 ppm [7]

CCN(C(=O)c1ccc(C#N)cc1)c1cccc(C(=O)Nc2c(Cl)cc(C(F)(C(F)(F)F)C(F)(F)F)cc2OC(F)F)c1OC [Compound 18]
≥ 80%: pest or weed control at 200 ppm [1] | pest or weed control at 200 ppm [2] | pest or weed control at 12.5 ppm [3] | pest or weed control at 200 ppm [4] | pest or weed control at 200 ppm [5] | pest or weed control at 200 ppm [6] | pest or weed control at 200 ppm [7]

N#Cc1ccc(C(=O)Nc2cccc(C(=O)Nc3c(Cl)cc(C(F)(C(F)(F)F)C(F)(F)F)cc3OC(F)F)c2F)cc1 [Compound 13]
≥ 80%: pest or weed control at 200 ppm [1] | pest or weed control at 200 ppm [2] | pest or weed control at 12.5 ppm [3] | pest or weed control at 200 ppm [4] | pest or weed control at 200 ppm [5] | pest or weed control at 200 ppm [6] | pest or weed control at 200 ppm [7]

CCN(C(=O)c1ccc(F)cc1Cl)c1cccc(C(=O)Nc2c(Cl)cc(C(F)(C(F)(F)F)C(F)(F)F)cc2OC(F)F)c1F [Compound 122]
≥ 80%: pest or weed control at 200 ppm [1] | pest or weed control at 200 ppm [2] | pest or weed control at 12.5 ppm [3] | pest or weed control at 200 ppm [4] | pest or weed control at 200 ppm [5] | pest or weed control at 200 ppm [6] | pest or weed control at 200 ppm [7]

Cc1cc(F)ccc1C(=O)Nc1cccc(C(=O)Nc2c(Cl)cc(C(F)(C(F)(F)F)C(F)(F)F)cc2OC(F)F)c1F [Compound 53]
≥ 80%: pest or weed control at 200 ppm [1] | pest or weed control at 200 ppm [2] | pest or weed control at 12.5 ppm [3] | pest or weed control at 200 ppm [4] | pest or weed control at 200 ppm [5] | pest or weed control at 200 ppm [6] | pest or weed control at 200 ppm [7]

CCN(C(=O)c1ccc(F)cc1)c1cccc(C(=O)Nc2c(Br)cc(C(F)(C(F)(F)F)C(F)(F)F)cc2OC(F)F)c1F [Compound 128]
≥ 80%: pest or weed control at 200 ppm [1] | pest or weed control at 200 ppm [2] | pest or weed control at 12.5 ppm [3] | pest or weed control at 200 ppm [4] | pest or weed control at 200 ppm [5] | pest or weed control at 200 ppm [6] | pest or weed control at 200 ppm [7]

CCN(C(=O)c1cccc(F)c1F)c1cccc(C(=O)Nc2c(Br)cc(C(F)(C(F)(F)F)C(F)(F)F)cc2OC(F)F)c1F [Compound 108]
≥ 80%: pest or weed control at 200 ppm [1] | pest or weed control at 200 ppm [2] | pest or weed control at 12.5 ppm [3] | pest or weed control at 200 ppm [4] | pest or weed control at 200 ppm [5] | pest or weed control at 200 ppm [6] | pest or weed control at 200 ppm [7]

O=C(Nc1cccc(C(=O)Nc2c(Br)cc(C(F)(C(F)(F)F)C(F)(F)F)cc2OC(F)F)c1F)c1ccc(F)cc1 [Compound 32]
≥ 80%: pest or weed control at 200 ppm [1] | pest or weed control at 200 ppm [2] | pest or weed control at 12.5 ppm [3] | pest or weed control at 200 ppm [4] | pest or weed control at 200 ppm [5] | pest or weed control at 200 ppm [6] | pest or weed control at 200 ppm [7]

COc1c(NC(=O)c2ccc(F)cc2)cccc1C(=O)Nc1c(Br)cc(C(F)(C(F)(F)F)C(F)(F)F)cc1OC(F)F [Compound 61]
≥ 80%: pest or weed control at 200 ppm [1] | pest or weed control at 200 ppm [2] | pest or weed control at 12.5 ppm [3] | pest or weed control at 200 ppm [4] | pest or weed control at 200 ppm [5] | pest or weed control at 200 ppm [6] | pest or weed control at 200 ppm [7]

COc1c(NC(=O)c2ccc(F)cc2)cccc1C(=O)Nc1c(Cl)cc(C(F)(C(F)(F)F)C(F)(F)F)cc1OC(F)F [Compound 93]
≥ 80%: pest or weed control at 200 ppm [1] | pest or weed control at 200 ppm [2] | pest or weed control at 12.5 ppm [3] | pest or weed control at 200 ppm [4] | pest or weed control at 200 ppm [5] | pest or weed control at 200 ppm [6] | pest or weed control at 200 ppm [7]

Cc1ccc(C(=O)Nc2cccc(C(=O)Nc3c(Br)cc(C(F)(C(F)(F)F)C(F)(F)F)cc3OC(F)F)c2F)cc1 [Compound 23]
≥ 80%: pest or weed control at 200 ppm [1] | pest or weed control at 200 ppm [2] | pest or weed control at 12.5 ppm [3] | pest or weed control at 200 ppm [4] | pest or weed control at 200 ppm [5] | pest or weed control at 200 ppm [6] | pest or weed control at 200 ppm [7]

O=C(Nc1cccc(C(=O)Nc2c(Cl)cc(C(F)(C(F)(F)F)C(F)(F)F)cc2OC(F)F)c1F)c1ccncc1 [Compound 15]
≥ 80%: pest or weed control at 200 ppm [1] | pest or weed control at 200 ppm [2] | pest or weed control at 12.5 ppm [3] | pest or weed control at 200 ppm [4] | pest or weed control at 200 ppm [5] | pest or weed control at 200 ppm [6] | pest or weed control at 200 ppm [7]

CCN(C(=O)c1ccc([N+](=O)[O-])cc1Cl)c1cccc(C(=O)Nc2c(Br)cc(C(F)(C(F)(F)F)C(F)(F)F)cc2OC(F)F)c1OC [Compound 135]
≥ 80%: pest or weed control at 200 ppm [1] | pest or weed control at 200 ppm [2] | pest or weed control at 12.5 ppm [3] | pest or weed control at 200 ppm [4] | pest or weed control at 200 ppm [5] | pest or weed control at 200 ppm [6] | pest or weed control at 200 ppm [7]

O=C(Nc1cccc(C(=O)Nc2c(Br)cc(C(F)(C(F)(F)F)C(F)(F)F)cc2OC(F)F)c1F)c1ccncc1 [Compound 1]
≥ 80%: pest or weed control at 200 ppm [1] | pest or weed control at 200 ppm [2] | pest or weed control at 12.5 ppm [3] | pest or weed control at 200 ppm [4] | pest or weed control at 200 ppm [5] | pest or weed control at 200 ppm [6] | pest or weed control at 200 ppm [7]

O=C(Nc1cccc(C(=O)Nc2c(Cl)cc(C(F)(C(F)(F)F)C(F)(F)F)cc2OC(F)F)c1F)c1ccc(OC(F)(F)F)cc1 [Compound 60]
≥ 80%: pest or weed control at 200 ppm [1] | pest or weed control at 200 ppm [2] | pest or weed control at 12.5 ppm [3] | pest or weed control at 200 ppm [4] | pest or weed control at 200 ppm [5] | pest or weed control at 200 ppm [6] | pest or weed control at 200 ppm [7]

CCN(C(=O)c1ccncc1)c1cccc(C(=O)Nc2c(Br)cc(C(F)(C(F)(F)F)C(F)(F)F)cc2OC(F)F)c1F [Compound 2, N-[3-[[2-bromo-6-(difluoromethoxy)-4-[1,2,2,2-tetrafluoro-1-(trifluoromethyl)ethyl]phenyl]carbamoyl]-2-fluoro-phenyl]-N-ethyl-pyridine-4-carboxamide]
≥ 80%: pest or weed control at 200 ppm [1] | pest or weed control at 200 ppm [2] | pest or weed control at 12.5 ppm [3] | pest or weed control at 200 ppm [4] | pest or weed control at 200 ppm [5] | pest or weed control at 200 ppm [6] | pest or weed control at 200 ppm [7]

COc1c(NC(=O)c2ccc([N+](=O)[O-])cc2)cccc1C(=O)Nc1c(Cl)cc(C(F)(C(F)(F)F)C(F)(F)F)cc1OC(F)F [Compound 81]
≥ 80%: pest or weed control at 200 ppm [1] | pest or weed control at 200 ppm [2] | pest or weed control at 12.5 ppm [3] | pest or weed control at 200 ppm [4] | pest or weed control at 200 ppm [5] | pest or weed control at 200 ppm [6] | pest or weed control at 200 ppm [7]

O=C(Nc1cccc(C(=O)Nc2c(Br)cc(C(F)(C(F)(F)F)C(F)(F)F)cc2OC(F)F)c1F)c1cc(Cl)ccc1F [Compound 24]
≥ 80%: pest or weed control at 200 ppm [1] | pest or weed control at 200 ppm [2] | pest or weed control at 12.5 ppm [3] | pest or weed control at 200 ppm [4] | pest or weed control at 200 ppm [5] | pest or weed control at 200 ppm [6] | pest or weed control at 200 ppm [7]

CCN(C(=O)c1cc[n+]([O-])cc1)c1cccc(C(=O)Nc2c(Br)cc(C(F)(C(F)(F)F)C(F)(F)F)cc2OC(F)F)c1OC [Compound 12]
≥ 80%: pest or weed control at 200 ppm [1] | pest or weed control at 200 ppm [2] | pest or weed control at 12.5 ppm [3] | pest or weed control at 200 ppm [4] | pest or weed control at 200 ppm [5] | pest or weed control at 200 ppm [6] | pest or weed control at 200 ppm [7]

— patent US11445724B2, “Insecticidal compounds” (SYNGENTA PARTICIPATIONS AG, priority 2013, dated 2022)
